Consider 2 compounds from patent EP4382122A1, “PEPTIDE COMPLEX IPF-H2A FOR MODULATION IMMUNE FUNCTION OF THE HUMAN BODY” (Zhabilov, Harry H., priority 2022, dated 2024).

Series [1] has as its system HSV-1 (Victoria strain). Put plainly: CPE inhibition test with MTT Assay, HSV-1 in Vero cells. The class given is cell-based, Herpes Simplex virus type 1 (HSV-1).
Series [2] relates to HSV-1/HSV-2. Put plainly: CPE inhibition test, microscopic, HSV-1/HSV-2 in Vero cells (type not separated). The class given is cell-based. Conditions: infected Vero cells, at MNC, 72 hours of treatment. Here is the method: Dose-dependent curves were derived to determine the inhibitory concentration leading to 50% inhibition of the viral cytopathic effect (IC50).
Initially, the antiviral activity of the IPF test substance was assessed by a CPE inhibition test. […] Cell cultures were observed daily under a light microscope as to theCPE development. […] The results of the experiments were evaluated on the basis of comparison with virus-free and no-added cells (cell control),and with cells infected with HSV-1/HSV-2 without substance addition (viral control).

In series [3] the test system is HSV-1 (Victoria strain). Put plainly: Infectious viral yield of HSV-1 in Vero cells (Reed and Muench titration).
Procedure: (§1) Viral strains were cultured in DMEM nutrient medium containing 2% FBS,1% antibiotic solution (100 U/ml penicillin G sodium and 100 µg/ml streptomycin sulphate).
(§2) Infectious virus titer was account for, also by Reed and Muench's method of final dilutions, and expressed as TCID50 (50% Tissue Culture Infectious Dose) and also quantitatively through the colorimetric MTT method. After triple freezing and thawing, the resulting virus- containing was centrifuged (2500 rpm/min, 15 min at 4 °C), aliquoted and frozen at -80°C.
(§3) Immediately prior to work, ten-fold logarithmic dilutions of the relevant virus strain were prepared in DMEM nutrient medium containing 2% FBS, 1% antibiotic solution (100 U/mL penicillin G sodium and 100 µg/mL streptomycin sulphate). When the cell monolayer reached between 70- 80% confluence (concentration 5 × 10^3 cells/well, usually after 24 h), the nutrient medium was removed from the wells. The cell monolayer was infected with the prepared viral dilutions of 0.1 mL. With each viral dilution, 4 wells were infected. The virus was adsorbed for 1 h ina thermostat at a temperature of 37°C, then to each well was added 0.1 mL of nutrient medium. Four wells containing uninfected cells were used for cell control. Thus treated plate was incubated in a thermostat at a temperature of 37°C and at the required humidity. In the event of a cytopathic effect (CPE) (appearance of round cells, unevenly disseminated in the cell monolayer, with a tendency to formfoci), it was waited until the development of 2-3 + (50 - 75% of the cell monolayer) or until it stopped progressing. The viral infection titer is expressed as TCID50 (50% Tissue Culture Infectious Dose). The presence or absence of a viral cytopathic effect is determined by the following formula: T = (logofdilution,where%infectedisover50%) + (proportionalityfactor×logofdilutionfactor). […] Proportionality factor = [(%infectedover50%)−50%][(%infectedover50%)−(% infected below; 50%)].
(§4) Extracellular virus samples were titrated in a 24-hour Vero monolayer in 96-well plates, by taking into account the infectious viral titer in log10, according to the final dilution method of Reed & Muenh. Differences in infectious viral titers between experimental and control samples are expressed as Δlog. Based on the reported results, dose-response graphs were plotted and minimum inhibitory concentrations 50 (MIC50) were determined. Values of Δlog10 ≥ 1 are considered to be reliable results for the performed tests.
Series [4] deals with Vero cells. The experiment in a line: Cytotoxicity on Vero cells, MTT Assay. As to conditions: 72 h.
Procedure: Using the solution, a series of dilutions are done ex tempore with a nutrient medium DMEM (Dulbecco's Modified Eagle Medium, Sigma-Aldrich, Germany), which includes 2% fetal bovine serum (FBS, Gibco) and 1% antibiotic solution (100 U/ml penicillin and 100 µg/ml streptomycin sulphate (Gibco, USA)) (working solutions), which solutions are then filtered through sterile antibacterial filters with a pore diameter of 0.45 µm. As a model system in the tests was used a kidney monolayer cell line of African Green Monkey (Cercopithecus aethiops).
Cells were cultured on DMEM nutrient medium with termoinactivated 10% FBS, 1% sodium pyruvate (Sigma- Aldrich, Germany) and antibiotics (penicillin (100 U/ml), streptomycin sulphate (100 µg/ml) (growingmedium). The cell cultures were incubated at 37 °C at 5% CO2 and the required humidity. The blending of the Vero cells was done at 1:3 - 1:5 at a density of about 2 × 10^5 cells/ml, then resuspended several times and transferred onto cell culture mattresses (25 cm^2). Before inoculating the cells with virus and/or IPF-H2A dilutions, the monolayer was washed three times with phosphate-buffered saline (PBS) with pH 7.4 for 1- 2 minutes, after which the solution was removed. All experiments were performed during the exponential phase of cell growth. […]
Another series has as its system HSV-2 (Bja strain). The experiment in a line: Infectious viral yield of HSV-2 in Vero cells (Reed and Muench titration).
Series [5] deals with Vero cells. Put plainly: Cytotoxicity on Vero cells, microscopic observation of cell monolayer morphology. As to conditions: 72 h.
Procedure: For analysis of the anti-proliferative and potentially antiviral properties of the IPF-H2A complex, according to the present invention, in cell culture, IPF-H2A was dissolved to an initial concentration of 50 mg/ml (background solution). Using the solution, a series of dilutions are done ex tempore with a nutrient medium DMEM (Dulbecco's Modified Eagle Medium, Sigma-Aldrich, Germany), which includes 2% fetal bovine serum (FBS, Gibco) and 1% antibiotic solution (100 U/ml penicillin and 100 µg/ml streptomycin sulphate (Gibco, USA)) (working solutions), which solutions are then filtered through sterile antibacterial filters with a pore diameter of 0.45 µm. As a model system in the tests was used a kidney monolayer cell line of African Green Monkey (Cercopithecus aethiops). […]
In series [6] the test system is HSV-1/HSV-2. The experiment in a line: Infectious viral yield, HSV-1/HSV-2 in Vero cells (text, type not separated). Type of series: cell-based.
Series [7] relates to HCoV-229E. The class given is cell-based, human coronavirus HCoV-229E. Conditions: for Δlog10: HCoV-229E, vs virus control.
Series [8] relates to human embryonic lung (Lep) cell line. Put plainly: Cytotoxicity on Lep cells, MTT test. Further details: CD50: unit not given beside the values. A general note: Tetrazolium dyes change colour on reduction, which living cells bring about.
Series [9] deals with HCoV-229E. The class given is cell-based, human coronavirus HCoV-229E.
The subject of series [10] is human embryonic lung (Lep) cell line. The experiment in a line: Cytotoxicity on Lep cells, microscopic surveillance of cell monolayer morphology. Conditions: 96 hours.
Procedure: As a model system is used monolayer of human embryonic lung (Lep) cell line. The cells are cultivated in DMEM with added thermally inactivated 10% FBS, 1% Sodium pyruvate (Sigma-Aldrich, Germany) and antibiotics (penicillin- 100 U/ml), streptomycin sulphate (100 µg/ml) (growth medium) and the cell cultures are incubated at 37°C in 5% CO2 and in the presence of the required humidity.
MTT analysis of the cell survival and proliferation was performed in a wide range of concentrations of the tested substance. […] The test substance is applied in concentration range 0.0001- 1 mg/ml, while the anti-nfluenza medicine Tamiflu® - 0.001- 7.5 mg/ml for 96 hours. The untreated Lep cells whose survival was accepted as 100%, were used as a negative control. […] The analysis of the cell morphology surveillance is synchronized with the MTT analysis of the cell surveillance.

Read-outs that look alike come from different tables or passages of the source.

Procedure for HSV-2 (Bja strain): as §1, §2, §3, §4

As for `Nc1nc2c(ncn2COCCO)c(=O)[nH]1` [ACV, 2-amino-1,9-dihydro-9-((2-hydroxyethoxy)methyl)-6H-purin-6-one], the “% cellular protection at MNC” value in the series with HSV-1 (Victoria strain) [1] (HSV-1 (Victoria strain), Vero cells, MTT Assay) was 100%. For the same compound, in the series on HSV-1 (Victoria strain) [1] (HSV-1 strain Victoria, concentration range of 0.0005- 0.01 mg/mL), the protection worked out at 100%. The “CPE suppression of HSV-1/HSV-2” value in the series with HSV-1/HSV-2 [2] is “less pronounced CPE inhibitory effect”. For the same compound, the “Viral yield (log10 TCID50)” value with HSV-1 (Victoria strain) [3] (concentration 0.0005 mg/mL) is 4.500 ± 0.763 log10 TCID50; with HSV-1 (Victoria strain) [3] (concentration 0.005 mg/mL), 4.530 ± 0.166 log10 TCID50; in the series on HSV-1 (Victoria strain) [3] (concentration 0.05 mg/mL), 4.300 ± 0.763 log10 TCID50; in the series with HSV-1 (Victoria strain) [3] (concentration 0.1 mg/mL), 4.000 ± 0.288 log10 TCID50; with HSV-1 (Victoria strain) [3] (concentration 1 mg/mL), 2.7 ± 0.500 log10 TCID50; with HSV-2 (Bja strain) (concentration 0.0005 mg/mL), 5.567 ± 0.000 log10 TCID50. In addition, the “Viral yield (log10 TCID50)” value in the series on HSV-2 (Bja strain) (concentration 0.005 mg/mL) was 5.300 ± 0.288 log10 TCID50; in the series with HSV-2 (Bja strain) (concentration 0.05 mg/mL), 4.500 ± 0.125 log10 TCID50; in the series on HSV-2 (Bja strain) (concentration 0.1 mg/mL), 4.300 ± 0.237 log10 TCID50; in the series with HSV-2 (Bja strain) (concentration 1 mg/mL), 4.005 ± 0.166 log10 TCID50. The Δlog10 turned out to be 0.8 in the series on HSV-1 (Victoria strain) [3] (concentration 0.0005 mg/mL); 0.8 with HSV-1 (Victoria strain) [3] (concentration 0.005 mg/mL); 1.0 in the series with HSV-1 (Victoria strain) [3] (concentration 0.05 mg/mL); 1.6 in the series on HSV-1 (Victoria strain) [3] (concentration 0.1 mg/mL); 2.6 in the series with HSV-1 (Victoria strain) [3] (concentration 1 mg/mL); 0.8 in the series with HSV-2 (Bja strain) (concentration 0.005 mg/mL). For the same compound, the Δlog10 in the series with HSV-2 (Bja strain) (concentration 0.05 mg/mL) was 1.0; in the series on HSV-2 (Bja strain) (concentration 0.1 mg/mL), 1.0; with HSV-2 (Bja strain) (concentration 1 mg/mL), 1.3. For the same compound, the results for the CD50 with Vero cells [4] and with Vero cells [5] were 0.5 ± 0.1 mg/mL and 0.5 ± 0.02 mg/mL, respectively. The “concentration range that effectively inhibits the yield of infectious viral progeny / replication” value in the series on HSV-1/HSV-2 [6] is 0.00001 to 1 mg/mL.

`CCOC(=O)C1=C[C@@H](OC(CC)CC)[C@H](NC(C)=O)[C@@H](N)C1` [Tamiflu, oseltamivir phosphate]: the “concentration range that effectively inhibits the infectious viral yield / replication” value with HCoV-229E [7] was 0.00001 to 1 mg/mL. The Δlog10 came to 0.8 with HCoV-229E [7] (concentration 0.0001 mg/ml); 1.3 in the series on HCoV-229E [7] (concentration 0.001 mg/ml); 1.3 in the series on HCoV-229E [7] (concentration 0.01 mg/ml); 1.3 in the series on HCoV-229E [7] (concentration 0.1 mg/ml); 1.8 in the series with HCoV-229E [7] (concentration 1.0 mg/ml). Moreover, the CD50 was determined as 2.5 ±0.06 in [8] (96 hours, MTT test) and 2.5 ±0.02 in series [10]. For the same compound, the MNC in series [8] (96 hours, MTT test) was determined as 0.005 ± 0.15 mg/mL; in [10] it was 0.001 ± 0.6 mg/mL. Further, the “toxicity relative to IPF-H2A peptide complex” value in series [8] (comparison of cell survival data) is “twentyfold more toxic”. In addition, the “inhibition of CPE of HCoV-229E” value with HCoV-229E [9] was “Less expressed CPE inhibition”.
